Experimental data as given in PubChem BioAssay AID248 (DTP/NCI, 2004).
Inconclusive results and toxic doses are left out.

System: L1210 leukemia ip in BDF1 mice, survival T/C
Assay: NCI In Vivo Anticancer Drug Screen. Data for tumor model L1210 Leukemia (intraperitoneal) in B6D2F1 (BDF1) mice
Settings: endpoint: mean survival time, higher = longer survival
How it was run: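 Tumor cells were implanted, animals were treated, and survival was followed. The result divides the treated measurement by the vehicle-control measurement.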

[1] = dose: 100.0 mg/kg/injection, schedule: Q04DX002 (ip), vehicle: saline
[2] = dose: 200.0 mg/kg/injection, schedule: Q04DX002 (ip), vehicle: saline
[3] = dose: 100.0 mg/kg/injection, schedule: Q01DX001 (ip), vehicle: carboxymethylcellulose (CMC)
[4] = dose: 200.0 mg/kg/injection, schedule: Q01DX001 (ip), vehicle: carboxymethylcellulose (CMC)
[5] = dose: 400.0 mg/kg/injection, schedule: Q01DX001 (ip), vehicle: carboxymethylcellulose (CMC)
[6] = dose: 100.0 mg/kg/injection, schedule: Q04DX003 (ip), vehicle: saline
[7] = dose: 200.0 mg/kg/injection, schedule: Q04DX003 (ip), vehicle: saline
[8] = dose: 100.0 mg/kg/injection, schedule: Q04DX002 (ip), vehicle: saline with Tween-80
[9] = dose: 100.0 mg/kg/injection, schedule: Q01DX001 (ip), vehicle: saline
[10] = dose: 200.0 mg/kg/injection, schedule: Q01DX001 (ip), vehicle: saline
[11] = dose: 400.0 mg/kg/injection, schedule: Q01DX001 (ip), vehicle: saline
[12] = dose: 100.0 mg/kg/injection, schedule: Q01DX009 (ip), vehicle: Klucel (hydroxypropylcellulose) (HPC)
[13] = dose: 100.0 mg/kg/injection, schedule: Q01DX009 (ip), vehicle: saline
[14] = dose: 100.0 mg/kg/injection, schedule: Q04DX003 (ip), vehicle: Klucel (hydroxypropylcellulose) (HPC)
[15] = dose: 200.0 mg/kg/injection, schedule: Q01DX009 (ip), vehicle: Klucel (hydroxypropylcellulose) (HPC)
[16] = dose: 200.0 mg/kg/injection, schedule: Q04DX003 (ip), vehicle: Klucel (hydroxypropylcellulose) (HPC)
[17] = dose: 400.0 mg/kg/injection, schedule: Q01DX009 (ip), vehicle: Klucel (hydroxypropylcellulose) (HPC)
[18] = dose: 400.0 mg/kg/injection, schedule: Q04DX003 (ip), vehicle: Klucel (hydroxypropylcellulose) (HPC)
[19] = dose: 100.0 mg/kg/injection, schedule: Q04DX003 (ip), vehicle: saline with Tween-80
[20] = dose: 200.0 mg/kg/injection, schedule: Q04DX003 (ip), vehicle: saline with Tween-80
[21] = dose: 400.0 mg/kg/injection, schedule: Q04DX003 (ip), vehicle: saline with Tween-80
[22] = dose: 200.0 mg/kg/injection, schedule: Q01DX009 (ip), vehicle: saline
[23] = dose: 400.0 mg/kg/injection, schedule: Q01DX009 (ip), vehicle: saline
[24] = dose: 50.0 mg/kg/injection, schedule: Q01DX001 (ip), vehicle: carboxymethylcellulose (CMC)

CNC(=O)c1ccc(NC(=O)Nc2ccc(C3=NCCCN3)cc2)cc1NC(=O)Nc1ccc(C2=NCCCN2)cc1
T/C (dose: 11.5 mg/kg/injection, schedule: Q01DX Z (ip), vehicle: carboxymethylcellulose (CMC)): 108 % of control
T/C (dose: 23.0 mg/kg/injection, schedule: Q01DX Z (ip), vehicle: carboxymethylcellulose (CMC)): 107 % of control
T/C (dose: 46.0 mg/kg/injection, schedule: Q01DX Z (ip), vehicle: carboxymethylcellulose (CMC)): 166 % of control
T/C (dose: 62.0 mg/kg/injection, schedule: Q01DX Z (oral), vehicle: carboxymethylcellulose (CMC)): 111 % of control
T/C (dose: 92.0 mg/kg/injection, schedule: Q01DX Z (ip), vehicle: carboxymethylcellulose (CMC)): 177 % of control
T/C (dose: 125.0 mg/kg/injection, schedule: Q01DX Z (oral), vehicle: carboxymethylcellulose (CMC)): 109 % of control
T/C (dose: 250.0 mg/kg/injection, schedule: Q01DX Z (oral), vehicle: carboxymethylcellulose (CMC)): 108 % of control
T/C (dose: 500.0 mg/kg/injection, schedule: Q01DX Z (oral), vehicle: carboxymethylcellulose (CMC)): 108 % of control

CC(C)(C)C1=CC(=O)C(N=[N+]=[N-])=CC1=O
T/C [1]: 94 % of control
T/C [2]: 115 % of control

Nc1c(Br)cc(Br)c2[nH]c(=O)c3ccccc3c12
T/C [3]: 104 % of control
T/C [4]: 96 % of control
T/C [5]: 98 % of control

O=C(O)CC(Br)C(=O)O (stereo unspecified)
T/C [6]: 98 % of control
T/C [7]: 102 % of control

COc1ccc(Br)cc1CCC=O
T/C [3]: 100 % of control
T/C [4]: 100 % of control
T/C [5]: 100 % of control

c1ccc(OCC2(N3CCCCC3)CCCC2)cc1
T/C [8]: 97 % of control

O=c1cc(CO)oc(C(Nc2cccc(Cl)c2)c2ccccc2)c1O (stereo unspecified)
T/C [9]: 91 % of control
T/C [10]: 95 % of control
T/C [11]: 89 % of control

Clc1cc(C(Cl)(Cl)Cl)ccc1C(Cl)(Cl)Cl
T/C (dose: 25.0 mg/kg/injection, schedule: Q01DX009 (ip), vehicle: Klucel (hydroxypropylcellulose) (HPC)): 89 % of control
T/C (dose: 50.0 mg/kg/injection, schedule: Q01DX009 (ip), vehicle: Klucel (hydroxypropylcellulose) (HPC)): 92 % of control
T/C [12]: 90 % of control

Cc1cc2oc(=O)cc(C)c2c(=O)o1
T/C [3]: 97 % of control
T/C [4]: 92 % of control

CC1C[N-]1.CC1C[N-]1.[Cl][Pt+2][Cl] (stereo unspecified)
T/C (dose: 25.0 mg/kg/injection, schedule: Q01DX009 (ip), vehicle: saline): 102 % of control
T/C (dose: 50.0 mg/kg/injection, schedule: Q01DX009 (ip), vehicle: saline): 103 % of control
T/C (dose: 50.0 mg/kg/injection, schedule: Q04DX003 (ip), vehicle: saline): 95 % of control
T/C [13]: 101 % of control
T/C [6]: 98 % of control
T/C [7]: 98 % of control

CCCCC(CC)COC(=O)C[N+](C)(C)CCOC(c1ccccc1)c1ccccc1 (stereo unspecified)
T/C (dose: 6.25 mg/kg/injection, schedule: Q04DX003 (ip), vehicle: saline with Tween-80): 91 % of control
T/C (dose: 12.5 mg/kg/injection, schedule: Q04DX003 (ip), vehicle: saline with Tween-80): 97 % of control

COCc1cc(C(C)(C)C)c(O)c(C(C)(C)C)c1
T/C [12]: 94 % of control
T/C [14]: 98 % of control
T/C [15]: 89 % of control
T/C [16]: 96 % of control
T/C [17]: 89 % of control
T/C [18]: 88 % of control

CCOC(=O)NC(C)(C)CN(C(=O)OCC)c1ccccc1
T/C [19]: 111 % of control
T/C [20]: 108 % of control
T/C [21]: 106 % of control

CC(C)CCC1=C(O)c2ccccc2C(=O)C1=O
T/C (dose: 30.0 mg/kg/injection, schedule: Q01DX015 (ip), vehicle: water): 100 % of control
T/C (dose: 35.0 mg/kg/injection, schedule: Q01DX015 (ip), vehicle: water): 106 % of control
T/C (dose: 45.0 mg/kg/injection, schedule: Q01DX015 (ip), vehicle: water): 95 % of control
T/C (dose: 70.0 mg/kg/injection, schedule: Q01DX015 (ip), vehicle: water): 103 % of control

C[n+]1ccccc1SC12CC3CC(CC(C3)C1)C2
T/C (dose: 10.0 mg/kg/injection, schedule: Q01DX009 (ip), vehicle: Klucel (hydroxypropylcellulose) (HPC)): 113 % of control

CCCN(CCC)NC(=O)c1ccc(N=NN(C)C)cc1
T/C (dose: 25.0 mg/kg/injection, schedule: Q01DX001 (ip), vehicle: other): 106 % of control
T/C (dose: 50.0 mg/kg/injection, schedule: Q01DX001 (ip), vehicle: other): 98 % of control
T/C (dose: 100.0 mg/kg/injection, schedule: Q01DX001 (ip), vehicle: other): 106 % of control
T/C (dose: 100.0 mg/kg/injection, schedule: Q01DX001 (ip), vehicle: saline with Tween-80): 101 % of control

COCC1OC(Nc2ccccc2)C(OC)C(OC)C1OC (stereo unspecified)
T/C [19]: 89 % of control
T/C [20]: 94 % of control
T/C [21]: 89 % of control

CCOC(=O)C1(O)c2ccccc2NC(=S)N1CC(Br)CBr (stereo unspecified)
T/C [13]: 100 % of control
T/C [1]: 90 % of control
T/C [22]: 93 % of control
T/C [2]: 97 % of control
T/C [23]: 102 % of control
T/C (dose: 400.0 mg/kg/injection, schedule: Q04DX002 (ip), vehicle: saline): 103 % of control

CC(=O)Nc1ccc(C(=O)/C=C/C(=O)O)c(O)c1
T/C [6]: 98 % of control
T/C [7]: 100 % of control
T/C (dose: 400.0 mg/kg/injection, schedule: Q04DX003 (ip), vehicle: saline): 100 % of control

CCOP(=O)(Nc1ccc2c(c1)Cc1cc([N+](=O)[O-])ccc1-2)OCC
T/C [24]: 97 % of control
T/C [3]: 94 % of control
T/C [4]: 92 % of control
T/C [5]: 94 % of control

CN(C)C1c2cc(Br)ccc2-c2ccc([N+](=O)[O-])cc21 (stereo unspecified)
T/C [3]: 94 % of control
T/C [4]: 103 % of control
T/C [5]: 100 % of control

CCCCCC(CCCCC)c1ccccn1
T/C [9]: 94 % of control
T/C [10]: 103 % of control
T/C [11]: 100 % of control

CN(C)Cc1cc(C(C)(C)C)ccc1-c1ccc(C(C)(C)C)cc1CN(C)C
T/C (dose: 12.5 mg/kg/injection, schedule: Q01DX009 (ip), vehicle: gum acacia): 91 % of control
T/C (dose: 25.0 mg/kg/injection, schedule: Q01DX009 (ip), vehicle: gum acacia): 96 % of control
T/C (dose: 50.0 mg/kg/injection, schedule: Q01DX009 (ip), vehicle: gum acacia): 86 % of control

CSc1ncc(CO)c(N)n1
T/C [24]: 111 % of control
T/C [3]: 98 % of control
T/C [4]: 102 % of control
T/C [5]: 111 % of control

Nc1ccccc1SC1CC(=O)N(c2ccc(F)cc2)C1=O (stereo unspecified)
T/C (dose: 100.0 mg/kg/injection, schedule: Q04DX003 (ip), vehicle: carboxymethylcellulose (CMC)): 92 % of control
T/C (dose: 200.0 mg/kg/injection, schedule: Q04DX003 (ip), vehicle: carboxymethylcellulose (CMC)): 92 % of control
T/C (dose: 400.0 mg/kg/injection, schedule: Q04DX003 (ip), vehicle: carboxymethylcellulose (CMC)): 91 % of control

Cc1cc(N(C)C)c([N+](=O)[O-])cc1C=O
T/C [12]: 98 % of control
T/C [14]: 100 % of control
T/C [15]: 96 % of control
T/C [16]: 94 % of control
T/C [17]: 96 % of control
T/C [18]: 94 % of control

CCCC(C)OS(=O)(=O)c1ccc(C)cc1 (stereo unspecified)
T/C [13]: 104 % of control
T/C [8]: 97 % of control
T/C [22]: 96 % of control
T/C (dose: 200.0 mg/kg/injection, schedule: Q04DX002 (ip), vehicle: saline with Tween-80): 93 % of control
T/C [23]: 102 % of control
T/C (dose: 400.0 mg/kg/injection, schedule: Q04DX002 (ip), vehicle: saline with Tween-80): 97 % of control

CNP(Br)(c1ccccc1)(c1ccccc1)c1ccccc1
T/C (dose: 10.0 mg/kg/injection, schedule: Q01DX001 (ip), vehicle: saline): 101 % of control

CSc1ccc(NC(=O)Oc2cc(C)c(Cl)cc2C(C)C)cc1
T/C [12]: 94 % of control
T/C [15]: 96 % of control
T/C [17]: 89 % of control
